Reference: patent US9115101B2 (Genentech, Inc., priority 2012, dated 2015)
Read-outs that look alike come from different tables or passages of the source.

Target: T1, RORc ligand binding domain (Homo sapiens, UniProt P51449)
T1 construct: host or cells: E. coli
T1 sequence (P51449 269-508 limits assumed): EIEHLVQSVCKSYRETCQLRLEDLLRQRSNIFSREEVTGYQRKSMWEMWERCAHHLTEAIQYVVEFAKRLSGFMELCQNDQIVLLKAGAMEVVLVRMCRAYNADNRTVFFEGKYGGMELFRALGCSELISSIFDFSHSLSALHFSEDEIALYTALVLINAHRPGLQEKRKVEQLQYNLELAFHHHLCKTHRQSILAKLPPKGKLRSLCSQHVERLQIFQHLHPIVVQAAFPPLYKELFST
Assay: In Vitro RORc Ligand Binding Assay (25-[3H]hydroxycholesterol radioligand filtration)
Settings: read-out: RORc IC50

[1] = In Vitro RORc Ligand Binding Assay, Table 4

SMILES | IC50 [nM] | IC50 [1] [nM]
C[C@H]1CCC(c2ccccc2)S(=O)(=O)N1Cc1ccc(N2CCn3c(cnc3C#N)C2)cc1F (stereo partly drawn) | 182 | –
C[C@H]1CCC(c2ccccc2)S(=O)(=O)N1Cc1ccc(C(=O)N2CCOC3(CCOC3)C2)cc1 (stereo partly drawn) [Example 361, (2,6-Dioxa-9-aza-spiro[4.5]dec-9-yl)-[4-((3S)-methyl-1,1-dioxo-6-phenyl-[1,2]thiaznan-2-ylmethyl)-phenyl]-methanone] | – | 641
C[C@@H](O)C(=O)N1CCN(c2ccc(CN3CCCCC(c4ccccc4)S3(=O)=O)cc2)CC1 (single isomer, unassigned) [Example 317, 1-{4-[4-(1,1-Dioxo-7-phenyl-[1,2]thiazepan-2-ylmethyl)-phenyl]-piperazin-1-yl}-2-hydroxy-propan-1-one] | – | 3400
C[C@H]1CCC(c2ccccc2)S(=O)(=O)N1Cc1ccc(C(=O)NCCN2CCCC2=O)cc1 (stereo partly drawn) [Example 275, 4-((3S)-Methyl-1,1-dioxo-6-phenyl-[1,2]thiazinan-2-ylmethyl)-N-[2-(2-oxo-pyrrolidin-1-yl)-ethyl]-benzamide] | – | 6050
O=S1(=O)C(c2ccccc2)CCCCN1Cc1ccc(N2CCC(n3cnnc3)CC2)cc1 (single isomer, unassigned) [Example 342, 7-Phenyl-2-[4-(4-[1,2,4]triazol-4-yl-piperidin-1-yl)-benzyl]-[1,2]thiazepane 1,1-dioxide] | – | 75
C[C@H]1CCC(c2ccccc2)S(=O)(=O)N1Cc1ccc(C(=O)NC2CCCC(O)C2)cc1 (stereo partly drawn) [Example 273, N-(3-Hydroxy-cyclohexyl)-4-((3S)-methyl-1,1-dioxo-6-phenyl-[1,2]thiazinan-2-ylmethyl)-benzamide] | – | 5470
C[C@H]1CCC(c2ccccc2)S(=O)(=O)N1Cc1ccc(N2CCc3[nH]ncc3C2)cc1F (single isomer, unassigned) [Example 156] | – | 272
C[C@H]1CCC(c2ccccc2)S(=O)(=O)N1Cc1ccc(N[C@H]2C[C@H](n3cnnc3)C2)cc1F (stereo partly drawn) [Example 234, [3-Fluoro-4-((3S)-methyl-1,1-dioxo-6-phenyl-[1,2]thiazinan-2-ylmethyl)-phenyl]-(3-[1,2,4]triazol-4-yl-cyclobutyl)-amine] | – | 132
C[C@H]1CCC(c2ccccc2)S(=O)(=O)N1Cc1ccc(N2CCn3c(cnc3CO)C2)cc1F (stereo partly drawn) [Example 404, {7-[3-Fluoro-4-((3S)-methyl-1,1-dioxo-6-phenyl-[1,2]thiazinan-2-ylmethyl)-phenyl]-5,6,7,8-tetrahydro-imidazo[1,5-a]pyrazin-3-yl}-methanol] | 504 | –
CCCNC(=O)[C@@H]1CN(c2ccc(CN3[C@@H](C)CCC(c4ccccc4)S3(=O)=O)c(F)c2)CCN1C(C)=O (stereo partly drawn) [Example 395, (S)-1-Acetyl-4-[3-fluoro-4-((3S)-methyl-1,1-dioxo-6-phenyl-[1,2]thiazinan-2-ylmethyl)-phenyl]-piperazine-2-carboxylic acid propylamide] | – | 287
C[C@H]1CCC(c2ccccc2)S(=O)(=O)N1Cc1ccc(N2CCC(C)(n3cnnc3)CC2)cc1F (single isomer, unassigned) [Example 413] | 32 | –
CC(=O)N1CCN(c2ccc(CN3CCCCC(c4ccccc4)S3(=O)=O)cc2)CC1 (single isomer, unassigned) [Example 306, 1-{4-[4-(1,1-Dioxo-7-phenyl-[1,2]thiazepan-2-ylmethyl)-phenyl]-piperazin-1-yl}-ethanone] | – | 87
C[C@H]1CCC(c2ccccc2)S(=O)(=O)N1Cc1ccc(N2CCC(c3nnc[nH]3)CC2)cc1F (single isomer, unassigned) [Example 226] | – | 281
CS(=O)(=O)N1CCC(Oc2ccc(CN3CCOCC(c4ccccc4)S3(=O)=O)c(F)c2)CC1 (single isomer, unassigned) [Example 57, 5-(2-fluoro-4-((1-(methylsulfonyl)piperidin-4-yl)oxy)benzyl)-3-phenyl-1,4,5-oxathiazepane 4,4-dioxide] | – | 14
CC1CN(S(C)(=O)=O)CCC1Nc1ccc(CN2[C@@H](C)CCC(c3ccccc3)S2(=O)=O)c(F)c1 (stereo partly drawn) [Example 451, [3-Fluoro-4-((3S)-methyl-1,1-dioxo-6-phenyl-[1,2]thiazinan-2-ylmethyl)-phenyl]-(1-methanesulfonyl-3-methyl-piperidin-4-yl)-amine] | 12 | –
C[C@H]1CCC(c2ccccc2)S(=O)(=O)N1Cc1ccc(C(=O)N2CC3(CCOCC3)C2)cc1 (stereo partly drawn) [Example 370, [4-((3S)-Methyl-1,1-dioxo-6-phenyl-[1,2]thiazinan-2-ylmethyl)-phenyl]-(7-oxa-2-aza-spiro[3.5]non-2-yl)-methanone] | – | 1060
CC(=O)N1CC2(C1)CN(C(=O)c1ccc(CN3[C@@H](C)CCC(c4ccccc4)S3(=O)=O)cc1)C2 (stereo partly drawn) [Example 366, 1-{6-[4-((3S)-Methyl-1,1-dioxo-6-phenyl-[1,2]thiazinan-2-ylmethyl)-benzoyl]-2,6-diaza-spiro[3.3]hept-2-yl}-ethanone] | – | 5280
C[C@H]1CCC(c2ccccc2)S(=O)(=O)N1Cc1ccc(N2CCC(c3ncno3)CC2)cc1F (single isomer, unassigned) [Example 220] | – | 43
C[C@H]1CCC(c2ccccc2)S(=O)(=O)N1Cc1ccc(C(=O)NC2CCS(=O)(=O)C2)cc1 (stereo partly drawn) [Example 389, N-(1,1-Dioxo-tetrahydro-6-thiophen-3-yl)-4-((3S)-methyl-1,1-dioxo-6-phenyl-[1,2]thiazinan-2-ylmethyl)-benzamide] | – | 3220
CC1CN(S(C)(=O)=O)CCC1Nc1ccc(CN2[C@@H](C)CCC(c3ccccc3)S2(=O)=O)c(F)c1 (stereo partly drawn) [Example 453, [3-Fluoro-4-((3S)-methyl-1,1-dioxo-6-phenyl-[1,2]thiazinan-2-ylmethyl)-phenyl]-(1-methanesulfonyl-3-methyl-piperidin-4-yl)-amine] | 9 | –

Other lines, results leading:

IC50 [nM] | IC50 [1] [nM] | SMILES
– | 29 | COCC(=O)N1CCN(c2ccc(CN3[C@@H](C)CCC(c4ccccc4)S3(=O)=O)c(F)c2)CC1 (single isomer, unassigned) [Example 74]
– | 165 | C[C@H](O)C(=O)N1CCN(c2ccc(CN3CCCCC(c4ccccc4)S3(=O)=O)c(F)c2)CC1 (single isomer, unassigned) [Example 305, 1-{4-[4-(1,1-Dioxo-7-phenyl-[1,2]thiazepan-2-ylmethyl)-3-fluoro-phenyl]-piperazin-1-yl}-2-hydroxy-propan-1-one]
– | 18 | CC[C@H]1CCC(c2ccccc2)S(=O)(=O)N1Cc1ccc(N2CCN(C(C)=O)CC2)cc1F (single isomer, unassigned) [Example 194]
– | 64 | C[C@H]1CCC(c2ccccc2)S(=O)(=O)N1Cc1ccc(N2CCN(C(=O)CCC#N)CC2)cc1F (single isomer, unassigned) [Example 72]
– | 57 | CC(=O)N1CCN(c2ccc(CN3[C@@H](C)CCC(c4ccccc4)S3(=O)=O)cc2Cl)CC1 (single isomer, unassigned) [Example 163]
– | 22 | C[C@H]1CCC(c2ccccc2)S(=O)(=O)N1Cc1ccc(N2CCCN(C(=O)CC#N)CC2)cc1F (single isomer, unassigned) [Example 82]
– | 72 | CC(=O)N1CCN(c2ccc(CN3[C@@H](C)CCC(c4ccccc4)S3(=O)=O)cc2C)CC1 (single isomer, unassigned) [Example 130]
– | 15 | C[C@H]1CN(c2ccc(CN3[C@@H](C)CCC(c4ccccc4)S3(=O)=O)c(F)c2)CCN1C(=O)CC#N (stereo partly drawn) [Example 263, 3-{4-[3-Fluoro-4-((3S)-methyl-1,1-dioxo-6-phenyl-[1,2]thiazinan-2-ylmethyl)-phenyl]-2-methyl-piperazin-1-yl}-3-oxo-propionitrile]
– | 3080 | COc1cc(CN2[C@@H](C)CCC(c3ccccc3)S2(=O)=O)ccc1N1CCN(C(C)=O)CC1 (single isomer, unassigned) [Example 161]
– | 258 | CN/C(=C\[N+](=O)[O-])N1CCN(c2ccc(CN3[C@@H](C)CCC(c4ccccc4)S3(=O)=O)c(F)c2)CC1 (stereo partly drawn) [Example 126, ((E)-1-{4-[3-Fluoro-4-((3S)-3-methyl-1,1-dioxo-6-phenyl-[1,2]thiazinan-2-ylmethyl)-phenyl]-piperazin-1-yl}-2-nitro-vinyl)-methyl-amine]
– | 310 | CC(=O)N1CCN(c2ccc(CN3[C@H](C)CC(c4ccccc4)S3(=O)=O)c(F)c2)CC1 (stereo partly drawn) [Example 349, 1-{4-[3-Fluoro-4-((3R)-methyl-1,1-dioxo-5-phenyl-isothiazolidin-2-ylmethyl)-phenyl]-piperazin-1-yl}-ethanone]
– | 82 | CC(=O)N1CCN(c2ccc(CN3[C@@H](C)CCC(c4ccccc4)S3(=O)=O)c(F)c2)C[C@@H]1CO (stereo partly drawn) [Example 262, 1-{4-[3-Fluoro-4-((3S)-methyl-1,1-dioxo-6-phenyl-[1,2]thiazinan-2-ylmethyl)-phenyl]-2-hydroxymethyl-piperazin-1-yl}-ethanone]
– | 8 | CC(=O)N1CCN(c2ccc(CN3[C@H](C)CCCC(c4ccccc4)S3(=O)=O)c(F)c2)CC1 (single isomer, unassigned) [Example 319]
– | 7 | CC(=O)N1CCN(c2ccc(CN3C4CCCC4CC(c4ccccc4)S3(=O)=O)c(F)c2)CC1 (single isomer, unassigned) [Example 248, 1-(4-(4-((2,2-dioxido-3-phenylhexahydro-cyclopenta[c][1,2]thiazin-1(3H)-yl)methyl)-3-fluorophenyl)piper-azin-1-yl)ethanone]
– | 206 | CC(=O)N1CCN(c2ccc(CN3[C@@H](C)CCC(c4cccc(C#N)c4)S3(=O)=O)c(F)c2)CC1 (single isomer, unassigned) [Example 203]
– | 2750 | CC(=O)N1CCN(c2ccc(CN3[C@@H](C)CCC(c4ccccc4)S3(=O)=O)cc2C#N)CC1 (single isomer, unassigned) [Example 113]
